The values that follow come from patent publication US5739157A, “Diastereomeric pure trifluoromethyl ketone peptide derivatives as inhibitors of human leukocyte elastase” (Zeneca Limited, priority 1994, dated 1998).

Like-named read-outs stand apart in the source and are kept apart here.

Series [1] addresses T1, human neutrophil elastase (HNE) (Homo sapiens, UniProt P08246).
T1 sequence (P08246 30-267): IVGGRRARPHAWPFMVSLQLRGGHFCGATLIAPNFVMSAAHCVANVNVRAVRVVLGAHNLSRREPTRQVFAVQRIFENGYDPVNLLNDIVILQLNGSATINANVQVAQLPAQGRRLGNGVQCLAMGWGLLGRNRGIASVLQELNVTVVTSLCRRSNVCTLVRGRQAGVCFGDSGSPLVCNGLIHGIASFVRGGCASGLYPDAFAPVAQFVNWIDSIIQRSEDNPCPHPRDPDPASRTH
Briefly: Acute Hemorrhagic Assay: HNE-induced lung hemorrhage. The class given is in vivo, Syrian hamsters. The settings on record: hamster, hamsters, 50 μg/animal HNE intratracheally, read-out: ED50, inhibition of HNE-induced hemorrhage.
Description: This assay relies on monitoring only the amount of hemorrhage in the lung following intratracheal administration of human neutrophil elastase (HNE). Hemorrhage is quantified by disrupting erythrocytes recovered in lung lavage fluid and comparing that to dilutions of whole hamster blood. […] Male Syrian hamsters (fasted for 16-18 hours prior to use) are lightly anaesthetised with Brevital sodium (30 mg/kg i.p.). […] Four hours after enzyme administration, the animals are killed with an overdose of pentobarbital sodium, the thorax opened and the lungs and heart removed and the lungs cleared of extraneous material. The excised lungs are lavaged with three changes of 2 ml PBS via a tracheal cannula. The recovered lavages are pooled, the volumes (about 5 mL) are recorded and the lavages stored at 4° C. until assayed. […] The optical densities (OD) of the disrupted lavages and blood samples are determined at 540 nm. The (μL blood equivalents)/(mL lavage) are determined by comparing the OD of the test samples with the OD of the standard curve prepared from whole hamster blood. The total μL equivalents of blood recovered is determined by multiplying recovered lavage volume by the (μL blood equivalents)/(mL lavage) for each sample.

A short description of series [2]: Hygroscopicity of the anhydrous crystalline form. The format is physicochemical.
Series [3] can be described thus: Epimeric stability in the solid state. The class given is physicochemical. Conditions: anhydrous form.
The conditions of series [4]: administered in the above in vivo tests (hamsters).

What is called ED50 is the midpoint of the dose-response relation.

With `COc1ccc(C(=O)N[C@H](C(=O)N2CCC[C@H]2C(=O)N[C@H](C(=O)C(F)(F)F)C(C)C)C(C)C)cc1` [compound of the invention, (S)-1-[(S)-2-(4-methoxybenzamido)-3-methylbutyryl]-N-[(S)-2-methyl-1-(trifluoroacetyl)propyl]pyrrolidine-2-carboxamide], the ED50 in series [1] (i.v. administration) came out at 0.59 mg/kg; in series [1] (oral dosing), 5.2 mg/kg. Moreover, the hygroscopicity result in series [2] is on record as “non-hygroscopic”. Besides, in series [3], the epimeric stability result is listed as “good epimeric stability”. In addition, in series [4], the overt toxicity result was “No overt toxicity”.
